1 compound from PMC6472066, “Characterisation of three novel α-L-arabinofuranosidases from a compost metagenome” (BMC Biotechnology, 2019) can be followed below.

What all share (test): pNP release at […] nm, Michaelis-Menten fit
For one assay, the system named is T1, AFase-D3.
T1 construct: full-length ORF, 494 residues, 56 kDa; C-terminal His tag (pET21a, NdeI-XhoI); E. coli BL21(DE3); homo-hexamer; primer-encoded N-terminus MNNVVINV
Format: biochemical, metagenome: high temperature compost. As to conditions: at the enzyme's pH and temperature optima (pH 4.5, 25 °C), 1 min; abstract gives KM range up to 0.43 mM; read-out: KM in mM (Std. error).

For a further assay, the system named is T2, AFase-H4.
T2 construct: full-length ORF, 489 residues, 55 kDa, no signal peptide; C-terminal His tag (pET21a, NdeI-XhoI); E. coli BL21(DE3); homo-hexamer
Format: biochemical, uncultured bacterium (compost metagenome). As to conditions: at the enzyme's pH and temperature optima (pH 5.0, 60 °C), 1 min; read-out: KM in mM (Std. error).

Another assay has as its system T3, AFase-E3.
T3 construct: full-length ORF, 510 residues, 58 kDa; C-terminal His tag (pET21a, NdeI-HindIII); E. coli BL21(DE3); homo-hexamer
The class given is biochemical, metagenome: high temperature compost. As to conditions: at the enzyme's pH and temperature optima (pH 4.0, 60 °C), 1 min; read-out: KM in mM (Std. error).

Each structure is given as a SMILES string.

On to `O=[N+]([O-])c1ccc(O[C@@H]2O[C@@H](CO)[C@H](O)[C@H]2O)cc1` [pNP-α-L-arabinofuranoside], for which the Michaelis constant (Km) (in general, the concentration of substrate that gives half-maximal velocity) in the assay on AFase-D3 was 0.38 mM; in the assay with AFase-H4, 0.31 mM; in the assay with AFase-E3 it was 0.33 mM.
